# Tested on: OVCAR-5 complex spheroids, viability
# Assay: Anticancer human tumor OVCAR-5 cell line growth inhibition;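 further: spheroids exposed to agents for seven days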;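 on viability, T/C: 100% = DMSO vehicle control wells viability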
# Conditions: for IC50: curve of first compound; for viability, T/C: stronger effect = lower value
# How it was run: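 Multicellular complex spheroids of tumor cells with human endothelial cells (HUVEC) and mesenchymal stem cells; the LSD1 inhibitor iadademstat was combined with standard-of-care or investigational agents. Top concentration at or near clinical Cmax, half-log dilutions; final DMSO ≤0.25%.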
# [1] = second compound 0.1 µM, first compound 0.000316 µM
# [2] = second compound 0.1 µM, first compound 0.001 µM
# [3] = second compound 0.1 µM, first compound 0.00316 µM
# [4] = second compound 0.1 µM, first compound 0.01 µM
# [5] = second compound 0.1 µM, first compound 0.0316 µM
# [6] = second compound 0.1 µM, first compound 0.1 µM
# [7] = second compound 0.316 µM, first compound 0.000316 µM
# [8] = second compound 0.316 µM, first compound 0.001 µM
# [9] = second compound 0.316 µM, first compound 0.00316 µM
# [10] = second compound 0.316 µM, first compound 0.01 µM
# [11] = second compound 0.316 µM, first compound 0.0316 µM
# [12] = second compound 0.316 µM, first compound 0.1 µM
# [13] = second compound 1 µM, first compound 0.000316 µM
# [14] = second compound 1 µM, first compound 0.001 µM
# [15] = second compound 1 µM, first compound 0.00316 µM
# [16] = second compound 1 µM, first compound 0.01 µM
# [17] = second compound 1 µM, first compound 0.0316 µM
# [18] = second compound 1 µM, first compound 0.1 µM
# [19] = second compound 3.16 µM, first compound 0.000316 µM
# [20] = second compound 3.16 µM, first compound 0.001 µM
# [21] = second compound 3.16 µM, first compound 0.00316 µM
# [22] = second compound 3.16 µM, first compound 0.01 µM
# [23] = second compound 3.16 µM, first compound 0.0316 µM
# [24] = second compound 3.16 µM, first compound 0.1 µM
# [25] = second compound 10 µM, first compound 0.000316 µM
# [26] = second compound 10 µM, first compound 0.001 µM
# [27] = second compound 10 µM, first compound 0.00316 µM
# [28] = second compound 10 µM, first compound 0.01 µM
# [29] = second compound 10 µM, first compound 0.0316 µM
# [30] = second compound 10 µM, first compound 0.1 µM
Structure (SMILES),IC50 (second compound 0.1 µM) [nM],IC50 (second compound 0.316 µM) [nM],IC50 (second compound 1 µM) [nM],IC50 (second compound 3.16 µM) [nM],IC50 (second compound 10 µM) [nM],"viability, T/C [3] [%]","viability, T/C [4] [%]","viability, T/C [5] [%]","viability, T/C [6] [%]","viability, T/C [9] [%]","viability, T/C [10] [%]","viability, T/C [11] [%]","viability, T/C [12] [%]","viability, T/C [15] [%]","viability, T/C [16] [%]","viability, T/C [17] [%]","viability, T/C [18] [%]","viability, T/C [21] [%]","viability, T/C [22] [%]","viability, T/C [23] [%]",other results
CC(C)CC(NC(=O)C(Cc1ccccc1)NC(=O)c1cnccn1)B(O)O (stereo not given) + NC1CC1c1ccc(-c2cccc(O)c2)cc1,7.35,6.68,6.31,4.44,4.52,75.8,40.9,14.8,5.74,74.6,37.5,10.7,3.96,71.6,35,10.2,2.99,65.7,32.3,12.6,"viability, T/C [1]: 111%; viability, T/C [2]: 103%; viability, T/C [7]: 111%; viability, T/C [8]: 98.8%; viability, T/C [13]: 100%; viability, T/C [14]: 103%; viability, T/C [19]: 101%; viability, T/C [20]: 70.5%; viability, T/C [24]: 3.14%; viability, T/C [25]: 81%; viability, T/C [26]: 87%; viability, T/C [27]: 57.4%; viability, T/C [28]: 27.6%; viability, T/C [29]: 8.96%; viability, T/C [30]: 1.75%"
CC(C)CC(NC(=O)CNC(=O)c1cc(Cl)ccc1Cl)B1OC(=O)CC(CC(=O)O)(C(=O)O)O1 (stereo not given) + NC1CC1c1ccc(-c2cccc(O)c2)cc1,> 100,> 100,> 100,> 100,99.8,89.8,72.1,66.2,55,80.4,73.3,74.4,57.5,79.3,71.1,66.8,53.6,83.9,65.8,64.3,"viability, T/C [1]: 92.4%; viability, T/C [2]: 87%; viability, T/C [7]: 96.6%; viability, T/C [8]: 92.1%; viability, T/C [13]: 98%; viability, T/C [14]: 91.6%; viability, T/C [19]: 79.6%; viability, T/C [20]: 78.7%; viability, T/C [24]: 51.8%; viability, T/C [25]: 97.1%; viability, T/C [26]: 93.3%; viability, T/C [27]: 71.4%; viability, T/C [28]: 70.3%; viability, T/C [29]: 64.8%; viability, T/C [30]: 47%"
COc1cc(Nc2ncc3c(n2)-c2ccc(Cl)cc2C(c2c(F)cccc2OC)=NC3)ccc1C(=O)O + NC1CC1c1ccc(-c2cccc(O)c2)cc1,86.2,98.9,62.3,54.5,47.7,76.9,73.1,60.4,47.3,88.9,84.4,63.9,50.1,76.1,82.1,57.4,46.4,81.3,72,53.6,"viability, T/C (second compound 0.1 µM, first compound 0.316 µM): 47.1%; viability, T/C (second compound 0.1 µM, first compound 1 µM): 39.8%; viability, T/C (second compound 0.316 µM, first compound 0.316 µM): 49.6%; viability, T/C (second compound 0.316 µM, first compound 1 µM): 44.6%; viability, T/C (second compound 1 µM, first compound 0.316 µM): 47.8%; viability, T/C (second compound 1 µM, first compound 1 µM): 40.1%; viability, T/C [24]: 46.1%; viability, T/C (second compound 3.16 µM, first compound 0.316 µM): 44.3%; viability, T/C (second compound 3.16 µM, first compound 1 µM): 42.1%; viability, T/C [27]: 87.6%; viability, T/C [28]: 72%; viability, T/C [29]: 50.7%; viability, T/C [30]: 50.3%; viability, T/C (second compound 10 µM, first compound 0.316 µM): 49.7%; viability, T/C (second compound 10 µM, first compound 1 µM): 43.7%"
